pEC50: −log10 of the molar value.
Tests used:
Assay type in all cases: functional, organism-based
[1] = tested on: Leishmania donovani; experiment: Antileishmanial activity against Leishmania donovani promastigotes after 72 hr by alamar blue assay
[2] = tested on: Plasmodium falciparum; experiment: Antimalarial activity against chloroquine-resistant Plasmodium falciparum W2 IndoChina after 48 hr by parasite LDH assay
[3] = tested on: Plasmodium falciparum; experiment: Antimalarial activity against chloroquine-sensitive Plasmodium falciparum D6 SierraLeone after 48 hr by parasite LDH assay

SMILES | pEC50 [1] | pEC50 [2] | pEC50 [3]
COc1ccc(CN(Cc2ccc(Br)cc2)c2cccnc2)cc1O | 4.49 |  | 
COc1ccc(CN(CCc2ccccc2)c2cccnc2)cc1O | 4.73 |  | 
COc1ccc(CN(CCCc2ccccc2)c2cccnc2)cc1O | 4.80 |  | 
COc1ccc(CN(CCc2c[nH]c3ccccc23)Cc2ccccc2)cc1O | 5.03 |  | 
COc1ccc(CN(CCc2c[nH]c3ccccc23)Cc2ccc(Br)cc2)cc1O | 5.01 |  | 
COc1ccc(CN(CCc2ccccc2)CCc2c[nH]c3ccccc23)cc1O | 4.79 |  | 
COc1ccc(CN(CCCc2ccccc2)CCc2c[nH]c3ccccc23)cc1O | 5.00 |  | 
COc1ccc(N(Cc2ccc(C)cc2)Cc2ccc(OC)c(O)c2)cc1 | 4.19 |  | 
COc1ccc(N(Cc2ccc(C(C)(C)C)cc2)Cc2ccc(OC)c(O)c2)cc1 | 4.21 |  | 
COc1ccc(CN(Cc2ccc(OC)c(O)c2)c2ccc(OC)cc2)cc1 | 4.15 |  | 
COc1ccc(CN(CCCN2CCOCC2)Cc2ccccc2)cc1O |  | 4.89 | 4.89
COc1ccc(CN(CCCN2CCOCC2)Cc2ccc(Br)cc2)cc1O | 4.29 | 4.98 | 4.98
COc1ccc(CN(CCc2ccccc2)CCc2ccc(Br)cc2)cc1O | 4.23 |  | 
COc1ccc(CN(CCCc2ccccc2)CCc2ccc(Br)cc2)cc1O | 4.54 |  | 
CCOC(=O)CCN(CCc1ccc(Br)cc1)Cc1ccc(OC)c(O)c1 | 4.60 |  | 
CCOC(=O)CN(CCc1ccc(Br)cc1)Cc1ccc(OC)c(O)c1 | 4.58 |  | 
COc1ccc(CN(CCc2ccc(Br)cc2)CC(=O)OC(C)(C)C)cc1O | 4.95 |  | 
CCOC(=O)CCCN(CCc1ccc(Br)cc1)Cc1ccc(OC)c(O)c1 | 4.42 |  | 
CCCCN(CCc1ccc(Br)cc1)Cc1ccc(OC)c(O)c1 | 3.90 | 5.15 | 
COc1ccc(CN(CCc2ccccc2)CCc2ccccc2)cc1O | 4.68 |  | 
COc1ccc(CN(CCCc2ccccc2)CCc2ccccc2)cc1O | 4.85 |  | 
COc1ccc(CN(CCc2ccccc2)CC(=O)OC(C)(C)C)cc1O | 4.47 |  | 

SMILES | pEC50 [1] | pEC50 [2] | pEC50 [3]
CCOC(=O)CCCN(CCc1ccccc1)Cc1ccc(OC)c(O)c1 | 4.59 |  | 
COc1ccc(CN(Cc2ccccc2)c2cccnc2)cc1O | 4.28 |  | 
COc1ccc(CN(CCc2ccc(Br)cc2)Cc2ccc([N+](=O)[O-])cc2)cc1O | 4.33 |  | 5.02
COc1ccc(CN(CCc2ccccc2)Cc2ccc(F)cc2)cc1O | 4.20 |  | 
COc1ccc(CN(CCc2ccccc2)Cc2cccc(Cl)c2)cc1O | 4.15 |  | 
COc1ccc(CN(CCc2ccccc2)Cc2ccc(Cl)cc2)cc1O | 4.17 |  | 
COc1ccc(CN(CCc2ccccc2)Cc2ccc(Cl)c(Cl)c2)cc1O | 4.30 |  | 
COc1ccc(CN(CCc2ccccc2)Cc2ccc(Cl)cc2Cl)cc1O | 4.22 |  | 
COc1ccc(CN(CCc2ccccc2)Cc2c(F)c(F)c(F)c(F)c2F)cc1O | 4.32 |  | 
COc1ccc(CN(CCc2ccc(Br)cc2)Cc2ccc(OC)c(O)c2)cc1 | 4.48 |  | 
COc1ccc(CN(CCc2ccccc2)Cc2ccc(C)cc2)cc1O | 4.70 |  | 
COc1ccc(CN(CCc2ccccc2)Cc2ccc(C(C)(C)C)cc2)cc1O | 4.73 |  | 
COc1ccc(CN(CCc2ccccc2)Cc2ccc(OC)c(O)c2)cc1 | 4.73 |  | 
COc1ccc(CN(Cc2ccccc2)c2cc(OC)c(OC)c(OC)c2)cc1O | 4.53 |  | 
COc1ccc(CN(Cc2ccc(Br)cc2)c2cc(OC)c(OC)c(OC)c2)cc1O | 4.35 |  | 
COc1ccc(N(Cc2ccccc2)Cc2ccc(OC)c(O)c2)cc1 | 3.96 |  | 
COc1ccc(N(Cc2ccc(Br)cc2)Cc2ccc(OC)c(O)c2)cc1 | 4.59 | 4.95 | 4.95
COc1ccc(N(Cc2ccc(F)cc2)Cc2ccc(OC)c(O)c2)cc1 | 4.07 |  | 
COc1ccc(N(Cc2ccc(Cl)cc2)Cc2ccc(OC)c(O)c2)cc1 | 4.22 |  | 
COc1ccc(CN(CCc2ccc(Br)cc2)Cc2ccc(Cl)cc2Cl)cc1O | 4.31 |  | 
COc1ccc(CN(Cc2ccccc2)Cc2ccc(Br)cc2)cc1O | 4.50 |  | 
COc1ccc(CN(CCc2ccccc2)Cc2ccccc2)cc1O | 4.43 |  | 

SMILES | pEC50 [1] | pEC50 [2] | pEC50 [3]
COc1ccc(CCN(Cc2ccccc2)Cc2ccc(OC)c(O)c2)cc1 | 4.30 | 4.90 | 4.90
COc1ccc(CN(Cc2ccccc2)c2ccc(Br)cc2)cc1O | 4.15 |  | 
COc1ccc(CN(Cc2ccccc2)c2cccc(Cl)c2)cc1O | 4.40 | 4.87 | 4.87
COc1ccc(CN(CCc2ccc(Br)cc2)Cc2ccccc2)cc1O | 4.93 | 4.95 | 5.18
COc1ccc(CN(CCc2ccc(OC)c(OC)c2)Cc2ccccc2)cc1O | 4.27 | 4.93 | 
COc1ccc(CCN(Cc2ccc(Br)cc2)Cc2ccc(OC)c(O)c2)cc1 | 4.66 | 4.98 | 
COc1ccc(CN(Cc2ccc(Br)cc2)c2ccc(Br)cc2)cc1O | 4.47 |  | 
COc1ccc(CN(Cc2ccc(Br)cc2)c2cccc(Cl)c2)cc1O | 4.19 |  | 
COc1ccc(CN(CCc2ccc(OC)c(OC)c2)Cc2ccc(Br)cc2)cc1O | 4.41 | 5.01 | 
COc1ccc(CN(CCc2ccc(Br)cc2)Cc2ccc(F)cc2)cc1O | 4.25 |  | 
COc1ccc(CN(CCc2ccc(Br)cc2)Cc2cccc(Cl)c2)cc1O | 4.34 |  | 
COc1ccc(CN(CCc2ccc(Br)cc2)Cc2ccc(Cl)cc2)cc1O | 4.27 |  | 
COc1ccc(CN(CCc2ccc(Br)cc2)Cc2ccc(Br)cc2)cc1O | 4.93 | 5.03 | 5.16
COc1ccc(CN(CCc2ccc(Br)cc2)Cc2ccc(C)cc2)cc1O | 4.53 |  | 
COc1ccc(CN(CCc2ccc(Br)cc2)Cc2c(F)c(F)c(F)c(F)c2F)cc1O | 4.30 |  | 
COc1ccc(CN(CCc2ccc(Br)cc2)Cc2ccc(Cl)c(Cl)c2)cc1O | 4.31 |  | 
COc1ccc(CN(CCc2ccc(Br)cc2)Cc2ccc(C(C)(C)C)cc2)cc1O | 4.32 |  | 
C[C@@H]1[C@H](O)[C@@H](C)/C=C/C=C/C=C/C=C/C=C/C=C/C=C/[C@H](O[C@@H]2O[C@H](C)[C@@H](O)[C@H](N)[C@@H]2O)C[C@@H]2O[C@](O)(C[C@@H](O)C[C@@H](O)[C@H](O)CC[C@@H](O)C[C@@H](O)CC(=O)O[C@H]1C)C[C@H](O)[C@H]2C(=O)O [AMPHOTERICIN B] | 8.00 |  | 
C[C@@H]1CC[C@H]2[C@@H](C)C(=O)O[C@@H]3O[C@@]4(C)CC[C@@H]1[C@]32OO4 [ARTEMISININ] |  | 7.70 | 7.70
CCN(CC)CCCC(C)Nc1ccnc2cc(Cl)ccc12 (centres undefined) [CHLOROQUINE] |  | 6.51 | 
N=C(N)c1ccc(OCCCCCOc2ccc(C(=N)N)cc2)cc1 [PENTAMIDINE] | 5.87 |  | 

Reference: ChEMBL document CHEMBL3046338, “Solid-Supported Parallel Synthesis of Hydroxybenzylamine Libraries Possessing Antileishmial Activity” (Med Chem Res, 2005)
